Experimental data published in ChEMBL document CHEMBL1201862, “PubChem BioAssay data set” (2004).
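Values below derive from 48-hour exposures of cells grown in 96-well plates, with endpoints linearly interpolated between the two concentrations bracketing the appropriate inhibition level. At the GI50, growth is halved.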 Active and inactive are the calls of the source. No stated cut-off is given here; in the data, active = GI50 up to about 1.1 µM and inactive = higher.

Legend:
Assay in all cases: DTP human tumour cell line panel, 48 h
[1] = system: TK-10
[2] = system: COLO 205
[3] = system: UACC-62
[4] = system: SF-539
[5] = system: SK-MEL-28
[6] = system: NCI-H226
[7] = system: M19-MEL
[8] = system: SW-620
[9] = system: HCT-15
[10] = system: A549
[11] = system: Malme-3M
[12] = system: HCC 2998
[13] = system: SK-OV-3
[14] = system: DMS-114
[15] = system: HCT-116
[16] = system: HT-29
[17] = system: OVCAR-4
[18] = system: CAKI-1
[19] = system: T47D
[20] = system: MDA-N

| SMILES | GI50 [1] | GI50 [2] | GI50 [3] | GI50 [4] | GI50 [5] | GI50 [6] | GI50 [7] | GI50 [8] | GI50 [9] [µM] | GI50 [10] | GI50 [11] | GI50 [12] | GI50 [13] | GI50 [14] | GI50 [15] | GI50 [16] | GI50 [17] | GI50 [18] | GI50 [19] | GI50 [20] |
| --- | --- | --- | --- | --- | --- | --- | --- | --- | --- | --- | --- | --- | --- | --- | --- | --- | --- | --- | --- | --- |
| Cc1c(CCl)c(=O)oc2c(C)c3occ(CCl)c(=O)c3cc12 | > 100 µM (inactive) | 16 µM (inactive) | 16.3 µM (inactive) | 21 µM (inactive) | 17.5 µM (inactive) | 23.9 µM (inactive) | 16.2 µM (inactive) | > 100 µM (inactive) | 25 | > 100 µM (inactive) | > 100 µM (inactive) | > 100 µM (inactive) | > 100 µM (inactive) | 20.2 µM (inactive) |  |  |  |  |  |  |
| CCOC(=O)Cc1csc(Nc2ccc(OCC)cc2)n1 | > 100 µM (inactive) | > 100 µM (inactive) |  | > 100 µM (inactive) | > 100 µM (inactive) | > 100 µM (inactive) | > 100 µM (inactive) | > 100 µM (inactive) | > 100 | > 100 µM (inactive) | > 100 µM (inactive) | > 100 µM (inactive) |  | 69.2 µM (inactive) | > 100 µM (inactive) | > 100 µM (inactive) | > 100 µM (inactive) |  |  |  |
| O=C(NCCS(=O)(=O)N1C(=O)C2CCCN2C(=O)[C@@H]1Cc1ccccc1)OCc1ccccc1 (stereo not given in full) | 38.1 µM (inactive) | 26.2 µM (inactive) | 40 µM (inactive) | 76.6 µM (inactive) | 78.3 µM (inactive) | 51.8 µM (inactive) |  | 90.4 µM (inactive) | 51.8 | 41.1 µM (inactive) | 74 µM (inactive) | 24 µM (inactive) | > 100 µM (inactive) | 22.4 µM (inactive) | 39.5 µM (inactive) | 42.8 µM (inactive) | 36.7 µM (inactive) | > 100 µM (inactive) |  |  |
| CNS(=O)(=O)NNS(=O)(=O)c1ccc(Cl)cc1 | > 100 µM (inactive) | > 100 µM (inactive) | > 100 µM (inactive) | > 100 µM (inactive) | > 100 µM (inactive) |  | > 100 µM (inactive) | > 100 µM (inactive) |  | > 100 µM (inactive) | > 100 µM (inactive) | > 100 µM (inactive) | > 100 µM (inactive) | > 100 µM (inactive) | > 100 µM (inactive) | > 100 µM (inactive) | > 100 µM (inactive) | > 100 µM (inactive) |  |  |
| N#CCc1nnc(N)o1 | > 100 µM (inactive) |  | > 100 µM (inactive) | > 100 µM (inactive) | > 100 µM (inactive) | > 100 µM (inactive) | > 100 µM (inactive) | > 100 µM (inactive) | > 100 | > 100 µM (inactive) | > 100 µM (inactive) |  | > 100 µM (inactive) |  | > 100 µM (inactive) |  |  | > 100 µM (inactive) |  |  |
| C=C1C[C@]23CCC4C(C)(C)C(=O)CC[C@]4(C)C2C[C@H]1C(O)C3=O (stereo not given in full) |  | > 75 µM (inactive) | > 75 µM (inactive) | > 75 µM (inactive) | > 75 µM (inactive) | > 75 µM (inactive) | > 75 µM (inactive) | > 75 µM (inactive) | > 75 | > 75 µM (inactive) | > 75 µM (inactive) |  | > 75 µM (inactive) |  |  |  | > 75 µM (inactive) |  |  |  |
| CC#Cc1c(C#CC)c(OC)c2c(c1OC)C(=O)c1ccccc1C2=O | 41.8 µM (inactive) | > 100 µM (inactive) | 23.9 µM (inactive) |  | > 100 µM (inactive) |  | > 100 µM (inactive) | > 100 µM (inactive) | 61.7 | 88.3 µM (inactive) | > 100 µM (inactive) | > 100 µM (inactive) | 34.9 µM (inactive) | 20.7 µM (inactive) | 15.9 µM (inactive) | > 100 µM (inactive) | > 100 µM (inactive) | 47.9 µM (inactive) |  |  |
| O=C(COc1ccc(Cl)cc1)N1N=C(c2ccc([N+](=O)[O-])o2)CC1(O)c1ccccc1 (stereo not given) | 8.63 µM (inactive) | 3.52 µM (inactive) | 3.87 µM (inactive) | 13.1 µM (inactive) | 12.2 µM (inactive) | 28.2 µM (inactive) | 2.44 µM (inactive) | 4.71 µM (inactive) | 3.05 | 10 µM (inactive) | 10.4 µM (inactive) | 4.11 µM (inactive) | 19.3 µM (inactive) |  | 5.27 µM (inactive) | 4.81 µM (inactive) | 7.11 µM (inactive) | 17.4 µM (inactive) |  |  |
| C/C(CN1C(=O)c2ccccc2C1=O)=N\NS(=O)(=O)c1ccc(F)cc1 | > 100 µM (inactive) | > 100 µM (inactive) | > 100 µM (inactive) | > 100 µM (inactive) | > 100 µM (inactive) | > 100 µM (inactive) |  | > 100 µM (inactive) | > 100 | > 100 µM (inactive) | > 100 µM (inactive) | > 100 µM (inactive) | > 100 µM (inactive) | > 100 µM (inactive) | > 100 µM (inactive) | > 100 µM (inactive) | > 100 µM (inactive) | > 100 µM (inactive) |  |  |
| CCc1cccc(CC)c1NC(=O)CC1SC(N)=NC1=O (stereo not given) | > 100 µM (inactive) | > 100 µM (inactive) | > 100 µM (inactive) | > 100 µM (inactive) | > 100 µM (inactive) | > 100 µM (inactive) | > 100 µM (inactive) | > 100 µM (inactive) | > 100 | > 100 µM (inactive) | > 100 µM (inactive) | > 100 µM (inactive) | > 100 µM (inactive) | > 100 µM (inactive) | > 100 µM (inactive) | > 100 µM (inactive) | > 100 µM (inactive) |  |  |  |
| CC(C)(CN1CCCCC1)C(/C=C/c1ccc(Cl)c(Cl)c1)=N\NC(=O)N/N=C(/C=C/c1ccc(Cl)c(Cl)c1)C(C)(C)CN1CCCCC1 | 1.66 µM (inactive) | 1.64 µM (inactive) | 1.95 µM (inactive) | 1.77 µM (inactive) | 1.72 µM (inactive) | 2.3 µM (inactive) |  | 1.62 µM (inactive) | 1.08 | 1.86 µM (inactive) | 1.55 µM (inactive) | 1.69 µM (inactive) | 1.92 µM (inactive) |  | 0.908 µM (active) | 0.361 µM (active) | 1.71 µM (inactive) | 1.71 µM (inactive) | 2.05 µM (inactive) | 1.42 µM (inactive) |
| CC(O)C1(CNc2cc(Cl)nc(N)n2)CCCC1 (stereo not given) | > 100 µM (inactive) | > 100 µM (inactive) | > 100 µM (inactive) | > 100 µM (inactive) | > 100 µM (inactive) | > 100 µM (inactive) |  | > 100 µM (inactive) | > 100 | > 100 µM (inactive) | > 100 µM (inactive) | 23.4 µM (inactive) | > 100 µM (inactive) |  | > 100 µM (inactive) | > 100 µM (inactive) | 75.3 µM (inactive) | > 100 µM (inactive) | > 100 µM (inactive) | > 100 µM (inactive) |
| COC(=O)[C@@H](NC(=O)N(Cc1ccccc1)C[C@H](CC(C)C)NC(=O)[C@@H](NC(=O)OC(C)(C)C)C(C)C)C(C)C | > 100 µM (inactive) | > 100 µM (inactive) | > 100 µM (inactive) | > 100 µM (inactive) | > 100 µM (inactive) | > 100 µM (inactive) |  | > 100 µM (inactive) | > 100 | > 100 µM (inactive) | > 100 µM (inactive) | > 100 µM (inactive) | > 100 µM (inactive) |  | > 100 µM (inactive) | > 100 µM (inactive) | > 100 µM (inactive) | > 100 µM (inactive) | > 100 µM (inactive) | > 100 µM (inactive) |
| Cc1cc(=O)oc2c(CNC(CC(C)C)C(=O)O)c(O)ccc12 (stereo not given) | > 100 µM (inactive) | > 100 µM (inactive) | > 100 µM (inactive) | > 100 µM (inactive) | > 100 µM (inactive) | > 100 µM (inactive) |  | > 100 µM (inactive) | > 100 | > 100 µM (inactive) | 87.5 µM (inactive) | > 100 µM (inactive) | > 100 µM (inactive) |  | > 100 µM (inactive) | > 100 µM (inactive) | > 100 µM (inactive) | > 100 µM (inactive) | > 100 µM (inactive) | > 100 µM (inactive) |
| CN(C)c1ccc(C(=N/N=C2\C(=O)Nc3ccccc32)c2ccc(N(C)C)cc2)cc1 | 1.73 µM (inactive) | 0.358 µM (active) | 0.37 µM (active) | 0.313 µM (active) | 3.17 µM (inactive) | 6.89 µM (inactive) |  | 0.247 µM (active) | 0.188 | 0.625 µM (active) | 2.17 µM (inactive) | 0.643 µM (active) | 1.37 µM (inactive) |  | 0.33 µM (active) | 0.348 µM (active) | 1.94 µM (inactive) | 0.39 µM (active) | 0.771 µM (active) | 0.0614 µM (active) |
| CCC(C)OC(=O)/C(Br)=C1/OC(=O)c2ccccc2-c2ccccc21 (stereo not given) | 19.4 µM (inactive) | 18.3 µM (inactive) | 19.4 µM (inactive) | 24 µM (inactive) | 30.1 µM (inactive) | 55.2 µM (inactive) |  | 18.1 µM (inactive) | 18 | 36.6 µM (inactive) | 29.7 µM (inactive) | 16.9 µM (inactive) | 45.6 µM (inactive) |  | 17.6 µM (inactive) | 23.2 µM (inactive) | 62.5 µM (inactive) | 43.4 µM (inactive) | 58.2 µM (inactive) | 32.6 µM (inactive) |
| CCCCCCCC/C=C\CCCCCCC/C=C1/C[C@](/C=C/C(=O)OC)(CO)OC1=O | 2.68 µM (inactive) | 1.57 µM (inactive) | 9.35 µM (inactive) | 1.01 µM (active) | 2.77 µM (inactive) | 5.14 µM (inactive) |  | 2.66 µM (inactive) | 8.41 | 2.37 µM (inactive) | 2.15 µM (inactive) | 4.18 µM (inactive) | 10.9 µM (inactive) |  | 4.56 µM (inactive) | 7.71 µM (inactive) | 6.58 µM (inactive) | 1.29 µM (inactive) | 7.38 µM (inactive) | 0.773 µM (active) |
